Assay [1] relates to sensory panel. The assay is described as follows: Taste threshold in water (intrinsic taste), duo-trio tests. The format is in vivo. As to the method:
(§1) The threshold concentrations of 21 newly identified peptides were determined in water for the intrinsic taste and in model broth (pH 6.0 adjusted with 1% formic acid) for the taste modulating properties, respectively (Table 4). The peptides were dissolved, serially diluted 1:2, and presented to the panel using duo-trio-tests with ascending concentrations as reported in literatures. The geometric mean of the last and the second to last concentration was calculated and taken as the individual recognition threshold. The threshold value of the sensory panel was approximated by averaging the threshold values of the individuals in two independent sessions. [formula] • wherein • Cp: the threshold of a panelist, • C1: the first correctly evaluated concentration, • C0: the first misjudged concentration [formula] • wherein • Cs: the thresholds of total panelists, • Cp: the threshold of a panelist, • n: the number of panel members

For assay [2], the system named is sensory panel. The assay is described as follows: Taste threshold in model broth (taste modulating properties), duo-trio tests. The format is in vivo. As to conditions: for Taste properties in model broth / Threshold in model broth: model broth pH 6.0; for Threshold in model broth: taste modulating threshold; for Taste threshold in model broth: as listed in Table 6. The method, then: as §1

Assay [3] in a line: Quantification of peptides in the hydrolyzed chicken plasma sample and DoT factors. The conditions noted are these: ratio of concentration in hydrolyzed chicken plasma sample to taste threshold in model broth. The text has this: To identify the peptides which play a key role on taste-active and taste-modulating effects, not only the 21 newly identified peptides, but also literature-known basic tastants (e.g., amino acids, γ-glutamyl peptides, cations, anions, etc.) were quantified in the hydrolyzed chicken plasma sample. Focusing on the 21 newly identified peptides, the taste quality, taste thresholds, dose over threshold (DOT) factors and concentrations of the peptides in the hydrolyzed chicken plasma sample are shown in Table 6. The taste thresholds determined for the newly identified peptides (those are listed in Table 6) were used for the calculation of DoT factors which are defined as the ratio of the concentration of a substance and its corresponding taste threshold concentration. The DoT factors enable a first estimation of the taste contribution as substances with DoT factors≥1 most likely contribute directly to the perceived taste.

Assay [4] deals with sensory panel. The assay is described as follows: Taste threshold in model broth (taste modulating properties), duo-trio tests. Type of assay: in vivo. As to conditions: as listed in Table 7.
A further assay has as its system Panelists. In words: Salt isointensity test. The format is in vivo. The conditions noted are these: for Average perceived salt isointensity / Salt-taste enhancing or reducing property: peptide 1 mmol/L in model broth containing 50 mM NaCl; for Enhancement or reduction: versus 50 mM NaCl, isointensity above 50 = enhancement, below 50 = reduction, peptide 1 mmol/L. As to the method:
To investigate the effects of peptides on the perceived saltiness, a salt isointensity test was performed according to literatures. In salt-isointensity test, the peptides (1 mmol/L) were spiked into model broth containing 50 mM NaCl and the panelists were asked to evaluate the intensity of saltiness compared with the following NaCl concentrations of 30, 40, 50, 60, 70, and 80 mmol/L. The results are shown in Table 5.

Assay [5] relates to sensory panel. In words: Taste threshold in commercial chicken soup, duo-trio tests. The format is in vivo. The conditions noted are these: for Taste threshold in food products, Commercial chicken soup: 3 g powder in 150 mL, spiked at 2 mmol/L, diluted. The text has this: To investigate the taste-modulating performance of the identified peptides in food products, the commercial chicken soup and model broth were used for further sensory experiments. According to the sensory experiment, the peptides such as Pro-Val-Leu-Lys (SEQ ID NO: 1), Pro-Leu-Pro-Arg (SEQ ID NO: 2), Glu-Ala-Glu-Phe-Asp (SEQ ID NO: 3), Pro-Gln-Pro-Glu-Arg (SEQ ID NO: 5), and Glu-Asp-Ala-Pro-Val-Leu-His (SEQ ID NO: 7) are spiked into the commercial chicken soup (Netto Marken-Discount AG&CO.KG, Maxhütte-Haidhof) and the model broth. According to the experiments, 3 g of the commercial chicken soup powder was dissolved in 150 mL boiling water. The peptides (each 2 mmol/L) were spiked into 20 mL solution of this solution. Afterwards, the taste threshold was determined by means of duo-trio-tests as previously described (using chicken soup as reference).

No end group written: not given here. Where only a bound is given, the exact number is not on record here.

For “Arg-Asn-Gly-Pro-Arg (RNGPR; Poultry) [SEQ ID NO: 17]”, in the assay with sensory panel [1], the Threshold in water entry was “tasteless”. Besides, in the assay on sensory panel [2], the “Taste properties in model broth” value was “kokumi, umami” and the “Threshold in model broth” value came out at 101 µmol/L. In addition, the DoT factor in assay [3] is recorded as 0.0.
Turning to EDAPVLH [SEQ ID NO: 7], in the assay on sensory panel [1], the “Taste properties in water” value is given as “astringent” and the Threshold in water came out at 565 µmol/L. Besides, the “Taste threshold in model broth” value in the assay on sensory panel [2] is 236 µmol/L. Also, in assay [3], the DoT factor amounted to 0.1. The “Taste threshold in food products, Model broth” value in the assay with sensory panel [4] turned out to be 236 µmol/L.
In the assay on sensory panel [1], EDEVLATP [SEQ ID NO: 21] returned a Threshold in water of 894 µmol/L. The “Threshold in model broth” value in the assay with sensory panel [2] was 96 µmol/L. Besides, in the assay with Panelists, the “Average perceived salt isointensity” value is listed as 59.8 mmol/L NaCl, the “Salt-taste enhancing or reducing property” value was “salt-tase enhancing” and the Enhancement or reduction turned out to be 20%.
EETPSHD [SEQ ID NO: 9] came in with a Threshold in water in the assay with sensory panel [1] of 283 µmol/L. Moreover, in the assay on sensory panel [2], the “Taste properties in model broth” value is reported as “umami, kokumi” and the “Threshold in model broth” value came out at 36 µmol/L. Further, in assay [3], the DoT factor turned out to be 0.1.
On to EEVEEEEVE [SEQ ID NO: 10], for which, in the assay with sensory panel [1], the Threshold in water stood at 233 µmol/L. In the assay with sensory panel [2], the “Taste properties in model broth” value was “umami, kokumi” and the “Threshold in model broth” value turned out to be 34 µmol/L. Also, the DoT factor in assay [3] turned out to be 0.1.
EFDARPT [SEQ ID NO: 8]: the Threshold in water entry in the assay with sensory panel [1] was “tasteless”. Also, in the assay with sensory panel [2], the “Taste properties in model broth” value is on record as “kokumi, salty” and the “Threshold in model broth” value amounted to 351 µmol/L. In the assay with Panelists, the “Average perceived salt isointensity” value is given as 66.7 mmol/L NaCl, the “Salt-taste enhancing or reducing property” value is reported as “salt-tase enhancing” and the Enhancement or reduction was 33%. For the same substance, the DoT factor in assay [3] is reported as 0.0.
With EFDEKAPD [SEQ ID NO: 11], in the assay on sensory panel [1], the “Taste properties in water” value is listed as “bitter” and the Threshold in water was 865 µmol/L. In addition, the “Threshold in model broth” value with sensory panel [2] turned out to be 67 µmol/L. Moreover, in the assay on Panelists, the “Average perceived salt isointensity” value is on record as 62.1 mmol/L NaCl, the “Salt-taste enhancing or reducing property” value is “salt-tase enhancing” and the Enhancement or reduction was 24%.
Take EFDEKPAD [SEQ ID NO: 6]: the Threshold in water entry in the assay with sensory panel [1] is “tasteless”. Besides, in the assay on sensory panel [2], the “Threshold in model broth” value was determined as 94 µmol/L. In the assay with Panelists, the “Average perceived salt isointensity” value amounted to 60.0 mmol/L NaCl, the “Salt-taste enhancing or reducing property” value was “salt-tase enhancing” and the Enhancement or reduction turned out to be 20%.
Regarding EGDSAAI [SEQ ID NO: 19], the Threshold in water result in the assay with sensory panel [1] was “tasteless”. In addition, in the assay on sensory panel [2], the “Taste properties in model broth” value is on record as “umami, kokumi” and the “Threshold in model broth” value was found to be 212 µmol/L. The DoT factor in assay [3] stood at 0.2.
In the assay on sensory panel [1], ENAPDQK [SEQ ID NO: 12] showed a Threshold in water of 907 µmol/L. Also, in the assay on sensory panel [2], the “Taste properties in model broth” value is reported as “kokumi, umami” and the “Threshold in model broth” value was found to be 137 µmol/L. For the same substance, the DoT factor in assay [3] was 0.2.
Regarding EPEGDVHQ [SEQ ID NO: 20], the Threshold in water in the assay on sensory panel [1] stood at 243 µmol/L. Moreover, in the assay on sensory panel [2], the “Taste properties in model broth” value was “umami, kokumi” and the “Threshold in model broth” value was 61 µmol/L.
In turn, “Glu-Ala-Glu-Phe-Asp (EAEFD; Poultry) [SEQ ID NO: 3]” registered a Threshold in water in the assay on sensory panel [1] of 116 µmol/L. Further, the “Taste threshold in model broth” value with sensory panel [2] is 95 µmol/L. In addition, in the assay with Panelists, the “Average perceived salt isointensity” value is listed as 43.0 mmol/L NaCl, the “Salt-taste enhancing or reducing property” value was “salt-tase reducing” and the Enhancement or reduction amounted to 14%. In the assay with sensory panel [4], the “Taste threshold in food products, Model broth” value worked out at 95 µmol/L.
“Glu-Asp-Met-Ala-Pro (EDMAP; Poultry) [SEQ ID NO: 13]” registered a Threshold in water in the assay on sensory panel [1] of 1024 µmol/L. Besides, in the assay on sensory panel [2], the “Taste properties in model broth” value is “kokumi, salty” and the “Threshold in model broth” value is 151 µmol/L. For the same substance, in the assay on Panelists, the “Average perceived salt isointensity” value is 43.8 mmol/L NaCl and the Enhancement or reduction was 13%. For the same substance, the DoT factor in assay [3] is 0.2.
Regarding “Pro-Gln-Pro-Glu-Arg (PQPER; Poultry) [SEQ ID NO: 5]”, the Threshold in water with sensory panel [1] was 705 µmol/L. In addition, the “Threshold in model broth” value in the assay with sensory panel [2] was determined as 133 µmol/L. In addition, in assay [3], the DoT factor came out at 0.0. In the assay on sensory panel [5] (commercial chicken soup), the “Not differentiated up to max concentration tested in commercial chicken soup” value is reported as more than 2 mmol/L and the “Taste threshold in food products, Commercial chicken soup” value is on record as “No effect”. Moreover, in the assay with sensory panel [4], the “Taste threshold in food products, Model broth” value is 133 µmol/L.
The substance “Pro-Glu-Arg-Asn-Glu (PERNE; Poultry) [SEQ ID NO: 4]” gave a Threshold in water in the assay with sensory panel [1] of 100 µmol/L. Also, in the assay on sensory panel [2], the “Threshold in model broth” value is 231 µmol/L. Further, the DoT factor in assay [3] came out at 0.1.
In the case of “Pro-Ile-Asn-Asp-Asn (PINDN; Poultry) [SEQ ID NO: 14]”, in the assay with sensory panel [1], the Threshold in water entry is listed as “tasteless”. For the same substance, the “Threshold in model broth” value in the assay on sensory panel [2] was found to be 26 µmol/L. Moreover, in the assay on Panelists, the “Average perceived salt isointensity” value amounted to 63.6 mmol/L NaCl, the “Salt-taste enhancing or reducing property” value is reported as “salt-tase enhancing” and the Enhancement or reduction is given as 27%.
Consider “Pro-Leu-Pro-Arg (PLPR; Poultry) [SEQ ID NO: 2]”, for which, in the assay with sensory panel [1], the “Taste properties in water” value is “astringent” and the Threshold in water came out at 296 µmol/L. Moreover, in the assay with sensory panel [2], the “Taste properties in model broth” value is “umami, kokumi” and the “Threshold in model broth” value came out at 112 µmol/L. Further, the DoT factor in assay [3] was 0.0. In the assay on sensory panel [5] (chicken soup versus model broth), the “Threshold in model broth, times lower than in commercial chicken soup” value turned out to be 4 times. Further, the “Taste threshold in food products, Commercial chicken soup” value with sensory panel [5] (commercial chicken soup) was 418 µmol/L. In addition, in the assay with sensory panel [4], the “Taste threshold in food products, Model broth” value turned out to be 112 µmol/L.
As to “Pro-Thr-Asp-Leu (PTDL; Poultry) [SEQ ID NO: 15]”, the Threshold in water result with sensory panel [1] was “tasteless”. Besides, the “Threshold in model broth” value with sensory panel [2] was found to be 97 µmol/L.
With “Pro-Val-Ala-Glu (PVAE; Poultry) [SEQ ID NO: 16]”, the Threshold in water in the assay with sensory panel [1] turned out to be 688 µmol/L. In the assay with sensory panel [2], the “Taste properties in model broth” value was “kokumi, salty” and the “Threshold in model broth” value amounted to 243 µmol/L. In the assay with Panelists, the “Average perceived salt isointensity” value stood at 62.0 mmol/L NaCl, the “Salt-taste enhancing or reducing property” value is “salt-tase enhancing” and the Enhancement or reduction is 24%. Besides, in assay [3], the DoT factor is on record as 0.7.
In the case of “Pro-Val-Leu-Lys (PVLK; Poultry) [SEQ ID NO: 1]”, the Threshold in water result with sensory panel [1] is given as “tasteless”. Moreover, the “Threshold in model broth” value with sensory panel [2] is 296 µmol/L. For the same substance, in the assay on Panelists, the “Average perceived salt isointensity” value was 42.9 mmol/L NaCl, the “Salt-taste enhancing or reducing property” value is reported as “salt-tase reducing” and the Enhancement or reduction stood at 14%. The DoT factor in assay [3] turned out to be 0.0. In the assay on sensory panel [4], the “Taste threshold in food products, Model broth” value was determined as 296 µmol/L.
For RAEDTATYY [SEQ ID NO: 18], the Threshold in water with sensory panel [1] was 610 µmol/L. In the assay with sensory panel [2], the “Taste properties in model broth” value is “kokumi, umami” and the “Threshold in model broth” value worked out at 247 µmol/L. The DoT factor in assay [3] is given as 0.0.
